Consider one compound from patent publication US7001913B1, “Aminopiperidine derivatives as antibacterials” (SmithKline Beecham P.L.C., priority 1999, dated 2006).

This assay deals with S. aureus Oxford, S. aureus WCUH29, S. pneumoniae 1629, S. pneumoniae N1387, S. pneumoniae ERY 2. The assay can be described thus: MIC of test compounds against various organisms. Format: cell-based. Conditions: against one or more of S. aureus Oxford. The procedure: The MIC (μg/ml) of test compounds against various organisms was determined: S. aureus Oxford, S. aureus WCUH29, S. pneumoniae 1629, S. pneumoniae N1387, S. pneumoniae ERY 2.

Broadly, the MIC is the lowest concentration that inhibits growth of the organism.

The structures appear in SMILES notation.

As for `CCCCCCCNC1CCN(C[C@H](O)c2ccnc3ccc(OC)cc23)CC1C(N)=O` (mixture of isomers) [Example 4, cis-3-(R/S)-Aminocarbonyl-4-(S/R)-heptylamino-1-[2-(R)-hydroxy-2-(6-methoxyquinolin-4-yl)]ethylpiperidine dioxalate], the MIC was no more than 1 µg/mL.
